The values that follow come from ChEMBL document CHEMBL1158146, “Oppositines A and B, sesquiterpene pyridine alkaloids from a Sri Lankan Pleurostylia opposita” (J Nat Prod, 2006).

Activity calls are given as the source filed them. No cut-off for these calls is given here.

Experiment [1] deals with Hypoxia-inducible factor 1-alpha (Homo sapiens) (UniProt Q16665). Nature of the experiment: Inhibition of HIF1alpha.
A short description of experiment [2]: Cytotoxicity against human HCT 116 cells after 48 hrs by MTT assay. It counts as functional, cell-based. Conditions: HCT-116, 48 h. On the technique in general: Formazan colour is commonly taken as a measure of viable cells.
The test system of experiment [3] is Human immunodeficiency virus. Nature of the experiment: Antiviral activity against HIV upto 10 ug/mL. In kind it is functional, organism-based.

Sequence of Hypoxia-inducible factor 1-alpha (Homo sapiens) (Q16665 whole entry, looked up): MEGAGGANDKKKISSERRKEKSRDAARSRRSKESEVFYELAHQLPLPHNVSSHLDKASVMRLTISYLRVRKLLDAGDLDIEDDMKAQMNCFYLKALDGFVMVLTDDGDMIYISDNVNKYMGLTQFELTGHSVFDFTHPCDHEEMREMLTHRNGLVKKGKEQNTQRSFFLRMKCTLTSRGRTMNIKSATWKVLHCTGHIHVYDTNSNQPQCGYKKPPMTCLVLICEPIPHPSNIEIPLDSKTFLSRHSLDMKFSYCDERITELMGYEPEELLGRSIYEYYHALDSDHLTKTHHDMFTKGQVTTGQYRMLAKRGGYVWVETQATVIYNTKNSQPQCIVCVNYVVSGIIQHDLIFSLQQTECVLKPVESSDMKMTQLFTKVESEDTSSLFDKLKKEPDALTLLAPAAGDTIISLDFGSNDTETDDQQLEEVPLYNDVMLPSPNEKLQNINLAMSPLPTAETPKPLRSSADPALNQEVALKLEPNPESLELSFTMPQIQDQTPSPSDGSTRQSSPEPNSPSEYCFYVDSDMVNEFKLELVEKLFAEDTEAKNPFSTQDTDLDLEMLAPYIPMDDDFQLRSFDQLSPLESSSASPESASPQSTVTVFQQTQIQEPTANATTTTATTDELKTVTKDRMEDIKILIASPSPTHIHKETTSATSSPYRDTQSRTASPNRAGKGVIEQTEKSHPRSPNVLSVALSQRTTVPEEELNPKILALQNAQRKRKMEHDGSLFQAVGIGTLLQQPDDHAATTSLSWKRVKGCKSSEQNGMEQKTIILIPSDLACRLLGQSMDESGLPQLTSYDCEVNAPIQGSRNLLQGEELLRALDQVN

As usually defined, the EC50 is the concentration that produces a half-maximal response. Regarding `CCC1CCC(=O)O[C@H]2[C@H](OC(C)=O)[C@H](OC(=O)c3ccccc3)[C@@]3(COC(C)=O)[C@H](OC(C)=O)[C@H](OC(C)=O)[C@@H]4[C@@H](OC(C)=O)[C@]3(O[C@]4(C)COC(=O)c3cccnc31)[C@@]2(C)O` (stereo partly specified) [OPPOSITINE A], the result in experiment [1] and in experiment [3] was inactive. Besides, in experiment [2], it took 27 µM to reach a half-maximal effect (EC50).

As for `CCC1CCC(=O)O[C@H]2[C@H](OC(C)=O)[C@H](OC(=O)c3ccccc3)[C@@]3(COC(C)=O)[C@H](OC(C)=O)[C@H](OC(C)=O)[C@@H]4[C@@H](OC(C)=O)[C@]3(O[C@]4(C)COC(=O)c3cccnc31)[C@@H]2C` (stereo partly specified) [OPPOSITINE B], the result in experiment [1] and in experiment [3] was inactive. The molecule also came in with an EC50 in experiment [2] of 26 µM.
